Target: T1, dihydroorotate dehydrogenase (DHODH) (Homo sapiens, UniProt Q02127)
T1 construct: N-terminal His-tagged DHODH/ΔTM; Met29–Arg395
Test: DCIP reduction enzyme assay with recombinant human DHODH
Format: biochemical

T1 sequence (Q02127 29-395): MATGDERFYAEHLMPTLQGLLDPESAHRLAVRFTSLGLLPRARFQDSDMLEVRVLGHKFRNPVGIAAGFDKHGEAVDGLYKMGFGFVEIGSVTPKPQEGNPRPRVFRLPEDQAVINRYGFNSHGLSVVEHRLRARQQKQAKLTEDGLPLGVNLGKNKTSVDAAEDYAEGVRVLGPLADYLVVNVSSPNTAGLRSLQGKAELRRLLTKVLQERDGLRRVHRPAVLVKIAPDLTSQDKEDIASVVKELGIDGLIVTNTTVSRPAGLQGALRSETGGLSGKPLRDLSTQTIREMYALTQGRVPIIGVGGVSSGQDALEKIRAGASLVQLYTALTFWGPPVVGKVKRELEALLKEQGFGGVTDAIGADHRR

| SMILES | IC50 |
| --- | --- |
| Cc1cc(=O)oc2c1ccc1oc(C(O)c3ccccc3)c(-c3ccccc3)c12 (centres unmarked) [H-006, 8-(Hydroxyphenylmethyl)-4-methyl-9-phenyl-2H-furo[2,3-h]-1-benzopyran-2-one] | 3.8 nM |
| Cc1cc(=O)oc2c1ccc1oc(C(=O)c3ccccc3)c(-c3ccccc3)c12 [NPD723, 8-Benzoyl-4-methyl-9-phenyl-2H-furo[2,3-h]-1-benzopyran-2-one] | 1520 nM |

Reference: article PMC10513951, “Identification of a dihydroorotate dehydrogenase inhibitor that inhibits cancer cell growth by proteomic profiling” (Oncology Research, 2023)
